{"source": "patent US11278587B2", "about": "(9 METERS BIOPHARMA, INC., priority 2018, dated 2022)", "test_system": "MCA205 fibrosarcoma cells", "test": "MCA205 subcutaneous model, tumor growth kinetics", "type": "in vivo, C57BL/6 mice", "conditions": "larazotide 2 days per week with anti-PD1 antibody i.p. at 3 day intervals", "note": "Ends that are not written are not given here."}
{"sequence": "GGVLVQPG [larazotide]", "values": [{"measurement": "enhancement of anti-PD1 effect on MCA205 tumor progression", "value": "did not appear to enhance this effect"}]}
